Assay results from patent US7112680B2, “Heterocyclic hydrazones for use as anti-cancer agents” (Austria Wirtschaftsservice Gesellschaft MIT Beschrankter …, priority 2000, dated 2006).
Read-outs that look alike come from different tables or passages of the source.

Legend:
[1] = test system: HeLa (epitheloid cervix carcinoma); experiment: Inhibition of tumor cell growth, SRB-assay, HeLa; assay type: cell-based, human; settings: read-out: IC50 HeLa (converted)
[2] = test system: Burkitt's lymphoma (CA 46, ATCC No. CRL 1648); experiment: Inhibition of tumor cell growth, MTT-assay, Burkitt's lymphoma; assay type: cell-based, human; settings: read-out: IC50 Burkitts
Method: (§1) The KB cell lines were grown in Dulbecco's modified Eagle's medium (4,5 g glucose/l). To the cultures of KB-C1 cells 1 μg of colchicine/ml, and to the hydroxyurea-resistant KB-HU cells 1 mM hydroxyurea was added every other week. […] 3,000 - 10,000 cells in 200 μl medium were seeded per well into 96-well plates. […] Approximately 10,000 cells per 100 μl were seeded in 96-well plates. […] The substances were dissolved in dimethylsulfoxide (DMSO). […] Subsequently, the samples were fixed, washed, and the absorption was determined by a microplate reader.

[3] = test system: K562 (chronic myelogenous leukemia); experiment: Inhibition of tumor cell growth, K562; assay type: cell-based, human; settings: 72 hours
Method: In order to obtain information about the growth-inhibiting action on tumor cells, the inhibition of the growth of the following human tumor cells was determined: Burkitt's lymphoma (CA 46, ATCC No. CRL 1648), CCRF-CEM (acute lymphoblastic leukemia, ATCC No. CCL 119), K562 (chronic myelogenous leukemia, ATTC No. CCL 243), HeLa (epitheloid cervix carcinoma, ATCC No. CCL 2), MEXF 276L (melanoma), HT-29 (colon adenocarcinoma, ATCC No. HTB 38), KB-3-1 (human oral epidermoid carcinoma, CTCC No. CCL 17), KB-HU hydroxyurea-resistant, multidrug-resistant KB-C1 cells (Akiyama et al, Cell. Mol Genet., 11:117–126, 1985). Burkitt's, CCRF-CEM, HeLa and MEXF 276L cells were grown in RPMI 1640, HT-29 cells in McCoy's 5A medium. The KB cell lines were grown in Dulbecco's modified Eagle's medium (4,5 g glucose/l). To the cultures of KB-C1 cells 1 μg of colchicine/ml, and to the hydroxyurea-resistant KB-HU cells 1 mM hydroxyurea was added every other week. The media were supplemented with 10% fetal calf serum (except Burkitt's lymphoma cells with 15%), 2 mM glutamine, 50 units/ml penicillin and 50 μg/ml streptomycin. Inhibition of growth of HeLa, HT-29, KB and MEXF 276L cells was detected by the SRB-assay (Skehan et al, J. Natl Cancer Inst., 82:1107–1112, 1990). 3,000 - 10,000 cells in 200 μl medium were seeded per well into 96-well plates. Dose-response curves for CCRF-CEM and Burkitt's lymphoma cells were effected by an MTT-assay (Mosman, J. Immunol Methods, 65:55–63, 1983) from Boehringer Mannheim, Mannheim, Germany. Approximately 10,000 cells per 100 μl were seeded in 96-well plates. After an initial incubation of four hours, various substance concentrations were added, and the cells were incubated at 37° C. in a water-saturated atmosphere of 95% air and 5% CO2 for 72 hours. The substances were dissolved in dimethylsulfoxide (DMSO). The concentration of DMSO was 0.5%, and this was not toxic to the cells. Subsequently, the samples were fixed, washed, and the absorption was determined by a microplate reader.

[4] = test system: HT-29 (colon adenocarcinoma); experiment: Inhibition of tumor cell growth, SRB-assay, HT-29; assay type: cell-based, human; settings: read-out: IC50 HT-29 (converted)
Method: as §1

[5] = test system: human tumor grafts (cell lines of FIG. 1); experiment: Colony forming assay (two-layer soft agar); assay type: cell-based; settings: for tumor type selectivity: colony forming assay, IC70 pattern, FIG. 1; for IC50 / IC90 / Mean IC70: mean values of all cell lines tested in FIG. 1, continuous exposure 3 to 6 days
Method: An excellent correlation of drug response in patients and the colony forming assay has been found (Scholz et al, Eur. J. Cancer 25:901–905, 1990). Solid human tumors were grown as grafts in nude mice, removed from the latter, mechanically comminuted and subsequently incubated in an enzyme cocktail consisting of collagenase (1.2–1.8 U/ml), DNAse (375 U/ml) and hyaluronidase (29 U/ml) in RPMI 1640 medium at 37° C. for 30 minutes. The cell mixture was passed through sieves of 200 μm and 50 μm mesh size and washed thereafter twice with PBS (phosphate buffered saline). The percentage of live cells was determined using a Neubauer counting chamber and trypan blue staining.
The colony forming assay was performed according to a two-layer agar technique introduced and modified by Hamburger and Salmon (Hamburger and Salmon, Science, 197:461–463, 1977). The bottom layer consisted of 0.2 ml of Iscoves's Modified Dulbecco's medium with 20% fetal calf serum and 0.75% agar. 8×10^3 to 1.6×10^4 cells were added to the same medium and 0.4% agar and plated in 24-multiwell plates onto the base layer. One day after the plating (with continuous exposure), the substances were added in 0.2 ml medium. Each plate included six controls containing the solvent only, and the treated groups contained 6 concentrations of the substances, each in triplicate. Cultures were incubated at 37° C. and 7% CO2 in a water-saturated atmosphere for 3 to 6 days, depending on the doubling time of the tumor cells. At the time of maximum colony formation with a size of […], counts were performed with an automatic image analysis system. 24 h prior to counting, live colonies were stained with a sterile aqueous solution of 2-(4-iodophenyl)-3-(4-nitrophenyl)-5-phenyltetrazolium chloride (1 mg/ml, 100 μl/well). The results of the tests are given in FIG. 1, and in the following Table 5, respectively. […] Columns pointing towards the right show a slighter than average activity.

[6] = test system: MEXF 276L (melanoma); experiment: Inhibition of tumor cell growth, SRB-assay, MEXF 276L; assay type: cell-based, human; settings: Table 2, 72 hours, read-out: IC50 MEXF276L
Method: as §1

[7] = test system: CCRF-CEM (acute lymphoblastic leukemia); experiment: Inhibition of tumor cell growth, MTT-assay, CCRF-CEM; assay type: cell-based, human; settings: Table 2, 72 hours

| IC50 ([1]; Table 3, 72 hours) [nM] | IC50 ([3]; Table 3) [nM] | IC50 ([4]; Table 3, 72 hours) [nM] | IC50 ([1]; Table 1, 72 hours) [nM] | IC50 ([3]; Table 1) [nM] | IC50 ([4]; Table 1, 72 hours) [nM] | IC50 [5] [nM] | IC90 [5] [nM] | SMILES | Mean IC70 [5] [nM] | other results |
| --- | --- | --- | --- | --- | --- | --- | --- | --- | --- | --- |
| 130 | 450 | 160 |  |  |  |  |  | CC(=NNc1nc2ccccc2n1Cc1ccccc1)c1ccccn1 [Ic-8] |  | IC50 ([2]; Table 3, 72 hours): 3580 nM |
| 400 | 90 | 11200 |  |  |  |  |  | CC(=NNc1nc2ccccc2n1C1CC1)c1ccccn1 [Ic-6] |  |  |
| 60 | 330 | 16100 |  |  |  | 265 | 4300 | CC(=NNc1nc2ccccc2n1C(C)C)c1ccccn1 [Ic-3] | 750 | IC50 ([2]; Table 3, 72 hours): 2140 nM |

The next lines start with the compound.

| SMILES | IC50 ([1]; Table 3, 72 hours) [nM] | IC50 ([3]; Table 3) [nM] | IC50 ([4]; Table 3, 72 hours) [nM] | IC50 ([1]; Table 1, 72 hours) [nM] | IC50 ([3]; Table 1) [nM] | IC50 ([4]; Table 1, 72 hours) [nM] | IC50 [5] [nM] | IC90 [5] [nM] | Mean IC70 [5] [nM] | other results |
| --- | --- | --- | --- | --- | --- | --- | --- | --- | --- | --- |
| CCn1c(NN=C(C)c2ccccn2)nc2ccccc21 [Ic-1, 1-(2-Pyridyl)-1-ethanone-1-(1-ethyl-1H-benzo[d]imidazol-2-yl)hydrazone] |  |  |  |  |  |  |  |  |  | IC50 ([1]; Homo sapiens, HeLa, Table 3, 72 hours): 190 nM; IC50 ([2]; Homo sapiens, CA46, Table 3, 72 hours): 680 nM; IC50 ([3]; Homo sapiens, K562, Table 3): 60 nM; IC50 ([4]; Homo sapiens, HT-29, Table 3, 72 hours): 11900 nM |
| Cn1c(NN=C(Cc2ccccc2)c2ccccn2)nc2ccccc21 [Ia-33] |  |  |  | 24 | 120 | 14100 |  |  |  |  |
| Cn1c(NN=C(c2ccccn2)C2CC2)nc2ccccc21 [Ia-24, E/Z-Cyclopropyl-(2-pyridyl)-methanone-(1-methyl-1H-benzo[d]imidazol-2-yl)-hydrazone] |  |  |  | 2 | 40 | 2880 | 138 | 3140 | 387 | tumor type selectivity [5]: selectivity for colon, breast, ovarian, and uterus tumors |
| CC(=NNc1nc2ccccc2o1)c1ccncn1 [Ib-8] |  |  |  |  |  |  |  |  |  | IC50 ([1]; Table 2, 72 hours): 410 nM; IC50 [6]: 1300 nM; IC50 ([2]; Table 2, 72 hours): 140 nM; IC50 [7]: 340 nM; IC50 ([4]; Table 2, 72 hours): 230 nM |
| Cn1c(NN=C(c2ccccc2)c2ccccn2)nc2ccccc21 [Ia-29] |  |  |  | 9 | 60 | 8740 | 294 | 4660 | 741 | tumor type selectivity [5]: selectivity for colon, breast, ovarian, and uterus tumors |
| CC(=NNc1nc2ccccc2o1)c1cnc(C)cn1 [Ib-17] |  |  |  |  |  |  |  |  |  | IC50 ([1]; Table 2, 72 hours): 370 nM; IC50 [6]: 1660 nM; IC50 ([2]; Table 2, 72 hours): 150 nM; IC50 [7]: 620 nM; IC50 ([4]; Table 2, 72 hours): 280 nM |
| CCCC(=NNc1nc2ccccc2n1C)c1ccccn1 [Ia-12] |  |  |  | 17 | 80 | 16300 | 246 | 3740 | 603 | IC50 ([2]; Table 1, 72 hours): 1780 nM |
